Key:
[1] = system: HepG2 cells; assay: MTT cytotoxicity assay; format: cell-based; conditions: Homo sapiens, read-out: IC50 (µM) ± SEM
Experimental: Human hepatocarcinoma (HepG2) (ATCC: HB-8065) cells were cultured in DMEM medium supplemented with 10% NBCS, 100 U/mL penicillin, and […] streptomycin. The incubation conditions were pH 7.4, 5% CO2 at 37 °C, and 95% air atmosphere at constant humidity. The medium was changed every 5 days. The final pesticide concentrations tested were achieved by adding each pesticide solution to the culture medium with a final MeOH or DMSO concentration ≤ 1% (v/v). Appropriate controls containing the same amounts of solvents were included in each experiment. Absence of mycoplasma was checked routinely using the MycoAlert^TM PLUS Mycoplasma Kit (Lonza, Rockland, ME, USA).
Cytotoxic effects were determined in HepG2 cells by the MTT and total protein content (PC) assays. They have been extensively used in in vitro toxicological studies for measuring cell proliferation and survival. The MTT assay determines the viability of cells by the reduction of yellow soluble tetrazolium salt (MTT), only in the metabolically active cells, via a mitochondrial-dependent reaction to an insoluble purple formazan crystal. The MTT viability assay was performed according to Ruiz et al. (2006). To begin, 2 × 10^4 cell/well were plated in 96-well tissue culture plates. After cells reached 80% confluence, the culture medium was replaced with fresh medium containing serial dilutions of each pesticide (amitraz from […], 2,4-DMF from 93.75 to 1500 µM, and 2,4-DMA from 93.75 to 1500 µM). The pesticides were exposed at 24, 48, and 72 h. During the exposure time, neither the medium nor the pesticides was replenished. After the exposure time, the medium was removed and 200 μL of fresh medium was added to each well. Then we added 50 μL/well of MTT and the plates were returned to the incubator in the darkness. After 3 h of incubation, the MTT solution was removed and 200 μL of DMSO was added, followed by 25 μL Sorensen’s glycine buffer. Plates were gently shaken for 5 min to achieve the complete dissolution. The absorbance was measured at 540 nm using an automatic ELISA plate reader (MultiSkanEX, Thermo Scientific, Waltham, MA, USA).
(§1) For MTT and PC assays, cell viability was expressed as a percentage relative to the control solvent (≤1% MeOH or DMSO). Three independent experiments were conducted for each exposure time and at least in quadruplicate per concentration. The mean inhibition concentration (IC50) values were calculated using SigmaPlot version 11 (Systat Software Inc., GmbH, Germany).

[2] = system: HepG2 cells; assay: Total protein content (PC) cytotoxicity assay; format: cell-based, human; conditions: for IC50: Homo sapiens, read-out: IC50 (µM) ± SEM; for decrease in cell viability: 72 h
Source text: The medium was changed every 5 days. The final pesticide concentrations tested were achieved by adding each pesticide solution to the culture medium with a final MeOH or DMSO concentration ≤ 1% (v/v). Appropriate controls containing the same amounts of solvents were included in each experiment. Absence of mycoplasma was checked routinely using the MycoAlert^TM PLUS Mycoplasma Kit (Lonza, Rockland, ME, USA).
The PC method is based on the increase of absorbance of Coomassie Brilliant Blue dye when binding to proteins. The assay was performed in the same 96-well plates where the MTT test was carried out. First, the plates were washed with PBS and each well received 200 μL of NaOH 0.1 N to dissolve the proteins. […] The plates remained for 30 min at room temperature and the absorbance was measured at 620 nm in an automatic ELISA plate reader (MultiSkanEX, Thermo Scientific, MA, USA).
as §1

[3] = system: primary hippocampal cells; conditions: MTT, 24 h, cited from earlier work
[4] = system: human lymphoblastoid (WIL2NS) cell line; set-up: method as in PMID 16125362; conditions: from 0.119 to 119 µM, 24, 48, and 72 h; lowest concentration 0.119 µM; cited from earlier work
[5] = PC, HepG2, 24 h, mean ± SEM (n = 3)
[6] = PC, HepG2, 48 h, mean ± SEM (n = 3)
[7] = PC, HepG2, 72 h, mean ± SEM (n = 3)

SMILES	IC50 ([1]; HepG2, 24 h) [µM]	IC50 ([1]; HepG2, 48 h) [µM]	IC50 ([1]; HepG2, 72 h) [µM]	IC50 [2, 5] [µM]	IC50 [2, 6] [µM]	IC50 [2, 7] [µM]	cell viability decreased to ([2]; PC, HepG2, 1500 µM, 24 h) [%]	IC50 ([2]; HepG2, 24 h) [µM]	IC50 ([2]; HepG2, 48 h) [µM]	IC50 ([2]; HepG2, 72 h) [µM]	decrease in cell viability ([2]; PC, HepG2, 1250 µM) [%]	decrease in cell viability ([2]; PC, HepG2, 1500 µM) [%]	metabolic activity ([3]; 100 µM)	cytotoxic effect (cell viability) ([3]; from 60 to 120 µM, effect up to 100 µM)	cytotoxicity (cell viability) [4]	reduction of cell viability ([2]; PC, HepG2, from 187.5 μM, three times of exposure)
Cc1ccc(N)c(C)c1 [2,4-DMA, 2,4-dimethylaniline]	> 1500	> 1500	> 1500	> 1500	> 1500	> 1500	53									
Cc1ccc(NC=O)c(C)c1 [2,4-DMF, N-(2,4-dimethylphenyl) formamide]	> 1500	> 1500	> 1500					> 1500	> 1500	> 1500	27	32				
Cc1ccc(/N=C/N(C)/C=N/c2ccc(C)cc2C)c(C)c1 [Amitraz, N,N’-[(methylimino)dimethylidyne]di-2,4-xylidine]	196 ± 10.1	176 ± 5	157 ± 10.1	260 ± 13.3	213 ± 37.5	175 ± 2.9							decrease in metabolic activity	decreased the cell viability in a concentration-dependent manner	significant decrease in cell viability for all concentrations tested, except for the lowest concentration assayed	24–100%

From article PMC9954107, “In Vitro and Predictive Computational Toxicology Methods for the Neurotoxic Pesticide Amitraz and Its Metabolites” (Brain Sciences, 2023)
